# From publication PMC11326381, “Structural Study of Selectivity Mechanisms for JNK3 and p38α with Indazole Scaffold Probing Compounds” (Research Square, 2024)
# Legend:
# JNK1 = conditions: cited from earlier work
# JNK3 = JNK3 (Homo sapiens, UniProt P53779); test: HTRF enzyme inhibition assay, JNK3; assay type: biochemical
# Description: Homogeneous Time-resolved Fluorescence Assay (HTRF)
# Enzyme inhibition assays to determine IC50 values for the kinases were performed as described previously.
# Chain of JNK3 (P53779 whole entry): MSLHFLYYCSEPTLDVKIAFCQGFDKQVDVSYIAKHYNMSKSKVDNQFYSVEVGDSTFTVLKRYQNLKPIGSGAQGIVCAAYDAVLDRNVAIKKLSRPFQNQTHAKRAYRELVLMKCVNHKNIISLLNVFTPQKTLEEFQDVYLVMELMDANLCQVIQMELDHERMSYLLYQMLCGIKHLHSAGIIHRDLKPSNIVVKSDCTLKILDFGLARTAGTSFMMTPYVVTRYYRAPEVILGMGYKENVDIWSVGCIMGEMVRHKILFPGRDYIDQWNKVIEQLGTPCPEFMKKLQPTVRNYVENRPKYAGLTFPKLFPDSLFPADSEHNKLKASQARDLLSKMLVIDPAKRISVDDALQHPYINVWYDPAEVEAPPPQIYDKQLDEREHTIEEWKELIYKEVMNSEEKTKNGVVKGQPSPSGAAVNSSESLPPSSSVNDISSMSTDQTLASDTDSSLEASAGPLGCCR
IC50 (JNK3) [nM],SMILES,affinity for JNK1 (JNK1)
6,CNC(=O)c1cc(-n2ncc3cc(Nc4c(F)cccc4Cl)c(COC)cc32)cs1 [Compound 21J],
1000,COc1ccccc1Nc1cc2cnn(-c3cc(C(=O)NC4COC4)sc3C)c2cc1F [Compound 23GA],
14,COc1ccccc1Nc1cc2cnn(-c3csc(C(=O)NC4COC4)c3)c2cc1F [Compound 23M],

# Second part, the molecule before the results:
SMILES,IC50 (JNK3) [nM],affinity for JNK1 (JNK1)
Cc1ccc(-n2nc(C(C)(C)C)cc2NC(=O)Nc2ccc(OCCN3CCOCC3)c3ccccc23)cc1 [BIRB796],,no affinity
CNC(=O)c1cc(-n2ncc3cc(Nc4c(F)cccc4Cl)c(CN4CCC4)cc32)cs1 [Compound 21G],137,
